This note sets out measurements from patent US8338465B2, “Cyclic carboxylic acid rhodanine derivatives for the treatment and prevention of tuberculosis” (priority 2006, dated 2012).

Read-outs that look alike come from different tables or passages of the source.

The assay deals with T1, dihydrolipoamide acyltransferase (DlaT) (Mycobacterium tuberculosis, UniProt P9WIS7).
T1 sequence (P9WIS7 1-553): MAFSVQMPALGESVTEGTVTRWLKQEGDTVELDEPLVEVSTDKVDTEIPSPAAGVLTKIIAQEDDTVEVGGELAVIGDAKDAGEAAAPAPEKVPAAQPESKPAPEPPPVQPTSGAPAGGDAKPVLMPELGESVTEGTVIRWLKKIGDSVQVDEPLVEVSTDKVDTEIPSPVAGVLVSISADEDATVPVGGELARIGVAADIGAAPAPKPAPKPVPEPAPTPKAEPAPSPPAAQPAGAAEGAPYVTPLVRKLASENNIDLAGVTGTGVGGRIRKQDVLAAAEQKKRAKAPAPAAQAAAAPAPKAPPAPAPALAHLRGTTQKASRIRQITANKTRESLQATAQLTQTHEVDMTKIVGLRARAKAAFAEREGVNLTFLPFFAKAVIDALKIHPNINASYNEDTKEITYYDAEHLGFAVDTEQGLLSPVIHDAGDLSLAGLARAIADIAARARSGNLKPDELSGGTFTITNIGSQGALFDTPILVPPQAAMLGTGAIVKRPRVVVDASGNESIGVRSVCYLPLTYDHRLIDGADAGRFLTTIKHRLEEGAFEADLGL
As to the kind of experiment: DlaT inhibition (Dlat IC50); DTNB peroxidase assay with Lpd, DlaT and AhpD. The assay is classed as biochemical.

The mark [1] stands for this setting: Table 1, Compounds A1 to A294, read-out: Dlat IC50 category.

By IC50 is commonly meant the concentration needed to halve the response being measured. In the case of `O=C(O)c1cccc(N2C(=O)C(=Cc3ccc(-c4ccc(C(F)(F)F)cc4)o3)SC2=S)c1` [Compound A200], the IC50 under setting [1] was below 10 µM. Take `O=C(O)CN1C(=O)C(=Cc2ccc(-c3ccc(Cc4ccc(Cl)cc4)cc3)o2)SC1=S` [Compound B79]: the IC50 (Dlat IC50 category) is below 10 µM. Regarding `NS(=O)(=O)c1cccc(N2C(=O)C(=Cc3ccc(-c4cccc(C(F)(F)F)c4)o3)SC2=S)c1` [Compound A26], under setting [1], the IC50 was 11 to 40 µM.

On to `COc1ccc(C)cc1-c1ccc(C=C2SC(=S)N(C3CCCC(C(=O)O)C3)C2=O)o1` (stereo not shown) [Compound C74, 3-{5-[5-(2-Methoxy-5-methyl-phenyl)-furan-2-ylmethylene]-4-oxo-2-thioxo-thiazolidin-3-yl}-cyclohexanecarboxylic acid], for which, where the note is “Dlat IC50 category”, the IC50 fell in the range of 11 to 40 µM. Still for that read-out and setting: the value for `CCOc1ccc(-c2ccc(C=C3SC(=S)N(C4CCC(C(=O)O)CC4)C3=O)o2)cc1` (stereo not shown) [Compound C52, 4-{5-[1-[5-(4-ethoxy-phenyl)-furan-2-yl]-methylidene]-4-oxo-2-thioxo-thiazolidin-3-yl}-cyclohexanecarboxylic acid] was below 10 µM. The same measure, in the same setting: the figure for `O=C(O)c1ccc(NN2C(=O)C(=Cc3ccc(-c4ccc(Cl)cc4)o3)SC2=S)cc1` [Compound D21, 4-{5-[5-(4-Chloro-phenyl)-furan-2-ylmethylene]-4-oxo-2-thioxo-thiazolidin-3-ylamino}-benzoic acid] is below 10 µM. Regarding `O=C(O)c1ccc(F)c(N2C(=O)C(=Cc3ccc(-c4ccc(F)cc4)o3)SC2=S)c1` [Compound A212], the IC50 under setting [1] was below 10 µM. Molecule `O=C(O)CCCCCN1C(=O)C(=Cc2cc(-c3cccc(C(F)(F)F)c3)co2)SC1=S` [Compound B39] yielded an IC50 (Dlat IC50 category) of 11 to 40 µM.

Regarding `O=C(O)c1cc(N2C(=O)C(=Cc3ccc(-c4ccc(F)cc4)o3)SC2=S)ccc1F` [Compound A259], the IC50 under setting [1] lay within 11 to 40 µM. `O=C(O)C(c1ccccc1)N1C(=O)C(=Cc2ccc(-c3ccc(-c4ccccc4)cc3)o2)SC1=S` (stereo not shown) [Compound B19] showed an IC50 (Dlat IC50 category) below 10 µM.

Regarding `NC(=O)c1cccc(N2C(=O)C(=Cc3ccc(-c4ccc(C(=O)O)cc4)o3)SC2=S)c1` [Compound A293], the IC50 under setting [1] fell in the range of 11 to 40 µM. Turning to `CC(C)c1ccc(-c2ccc(C=C3SC(=S)N(CC(=O)O)C3=O)o2)cc1` [Compound B70], the IC50 (Dlat IC50 category) lay within 11 to 40 µM. `CS(=O)(=O)c1ccc(-c2ccc(C=C3SC(=S)N(Nc4ccccc4C(=O)O)C3=O)o2)cc1` [Compound D50, 2-{5-[5-(4-methanesulfonyl-phenyl)-furan-2-ylmethylene]-4-oxo-2-thioxo-thiazolidin-3-ylamino}-benzoic acid] had an IC50 (Dlat IC50 category) below 10 µM.

Turning to `O=C1C(=Cc2ccc(-c3ccc(Cl)cc3)o2)SC(=S)N1C1CCC(O)CC1` (stereo not shown) [Compound C22, 5-[1-[5-(4-chloro-phenyl)-furan-2-yl]-methylidene]-3-(4-hydroxy-cyclohexyl)-2-thioxo-thiazolidin-4-one], under “Dlat IC50 category”, the IC50 fell in the range of 11 to 40 µM. On the same count and under the same terms, the figure for `O=C(O)C(Cc1ccc(O)cc1)N1C(=O)C(=Cc2ccc(-c3cc(Cl)ccc3Cl)o2)SC1=S` (stereo not shown) [Compound B62] is below 10 µM; for `CNS(=O)(=O)c1ccc(-c2ccc(C=C3SC(=S)N(CCCC(=O)O)C3=O)o2)cc1` [Compound B115] it is 41 to 80 µM; for `O=C(O)c1ccccc1NN1C(=O)C(=Cc2ccc(-c3ccccc3-c3ccccc3)o2)SC1=S` [Compound D57, 2-{5-[1-(5-biphenyl-2-yl-furan-2-yl)-methylidene]-4-oxo-2-thioxo-thiazolidin-3-ylamino}-benzoic acid] it is below 10 µM.

For the molecule `CC(C)(C)c1ccc(-c2ccc(C=C3SC(=S)N(c4cncc(C(=O)O)c4)C3=O)o2)cc1` [Compound M3], the IC50 (Dlat IC50 category, Table 13, Compounds M1 to M4) was below 10 µM. In turn, `O=C(O)C1CCCC(N2C(=O)C(=Cc3ccc(-c4ccc(F)cc4)o3)SC2=S)C1` (stereo not shown) [Compound C43, 3-{5-[1-[5-(4-fluoro-phenyl)-furan-2-yl]-methylidene]-4-oxo-2-thioxo-thiazolidin-3-yl}-cyclohexanecarboxylic acid] displayed an IC50 (Dlat IC50 category) below 10 µM.

Consider `Cc1cc(C)c(-c2ccc(C=C3SC(=S)N(c4cccc(C(=O)O)c4)C3=O)o2)c(C)c1` [Compound A184], for which, under setting [1], the IC50 lay in the range of 11 to 40 µM. For `O=C(O)C1CCCC(N2C(=O)C(=Cc3ccc(-c4ccccc4F)s3)SC2=S)C1` (stereo not shown) [Compound C35, 3-{5-[1-[5-(2-fluoro-phenyl)-thiophen-2-yl]-methylidene]-4-oxo-2-thioxo-thiazolidin-3-yl}-cyclohexanecarboxylic acid], the IC50 (Dlat IC50 category) fell in the range of 11 to 40 µM. Take `CC(C)C(C(=O)O)N1C(=O)C(=Cc2ccc(-c3ccc(Cl)cc3)o2)SC1=S` (stereo not shown) [Compound B103]: for the setting “Dlat IC50 category”, the IC50 is below 10 µM. For `CC(C)Cc1ccc(-c2ccc(C=C3SC(=S)N(c4cc(C(=O)O)ccc4Cl)C3=O)o2)cc1` [Compound A92], the IC50 under setting [1] is below 10 µM. `Nc1ccccc1-c1ccc(C=C2SC(=S)N(c3cccc(C(=O)O)c3)C2=O)o1` [Compound A158]: under setting [1], the IC50 is above 41 µM. As to `O=C(O)CCCN1C(=O)C(=Cc2ccc(-c3ccccc3Cl)o2)SC1=S` [Compound B90], the half-maximal inhibitory concentration (IC50) (Dlat IC50 category) was below 10 µM. In the case of `O=C(O)c1cc(N2C(=O)C(=Cc3ccc(-c4cccc(C(F)(F)F)c4)o3)SC2=S)cc([N+](=O)[O-])c1` [Compound A89], the IC50 under setting [1] was in the range of 11 to 40 µM. The same measure, in the same setting: the figure for `O=C(O)c1cc(N2C(=O)C(=Cc3ccc(-c4ccc(C5CCCCC5)cc4)o3)SC2=S)ccc1O` [Compound A57] is below 10 µM.

`CS(=O)(=O)c1ccc(-c2ccc(C=C3SC(=S)N(CCCC(=O)O)C3=O)o2)cc1` [Compound B93] came in with an IC50 (Dlat IC50 category) of 11 to 40 µM. For the molecule `O=C(O)c1ccc(F)c(N2C(=O)C(=Cc3ccc(-c4ccccc4Cl)o3)SC2=S)c1` [Compound A99], under setting [1], the IC50 is below 10 µM.

Consider `O=C(O)c1ccccc1NN1C(=O)C(=Cc2ccc(-c3cccc(CO)c3)o2)SC1=S` [Compound D44, 2-{5-[1-[5-(3-hydroxymethyl-phenyl)-furan-2-yl]-methylidene]-4-oxo-2-thioxo-thiazolidin-3-ylamino}-benzoic acid], for which the IC50 (Dlat IC50 category) is below 10 µM. Same read-out and setting: the value for `COc1ccc(-c2ccc(C=C3SC(=S)N(Nc4ccccc4C(=O)O)C3=O)o2)c(OC)c1` [Compound D19, 2-{5-[1-[5-(2,4-dimethoxy-phenyl)-furan-2-yl]-methylidene]-4-oxo-2-thioxo-thiazolidin-3-ylamino}-benzoic acid] was below 10 µM. For the setting “Dlat IC50 category, Table 17, Compounds Q1 to Q9”, `O=C(O)c1cc(N2C(=O)C(=Cc3ccc(-c4ccsc4Cl)o3)SC2=S)ccc1O` [Compound Q5] displayed an IC50 of 11 to 40 µM.

`CC(C)C(C(=O)O)N1C(=O)C(=Cc2ccc(-c3ccc(Cl)cc3[N+](=O)[O-])o2)SC1=S` (stereo not shown) [Compound B110]: the IC50 (Dlat IC50 category) is 11 to 40 µM. Turning to `O=C(O)c1cccc(NN2C(=O)C(=Cc3ccc(-c4cccc(C(F)(F)F)c4)o3)SC2=S)c1` [Compound D17, 3-{5-[1-[5-(3-trifluoromethyl-phenyl)-furan-2-yl]-methylidene]-4-oxo-2-thioxo-thiazolidin-3-ylamino}-benzoic acid], the IC50 (Dlat IC50 category) is below 10 µM. As to `O=C(O)c1cc(N2C(=O)C(=Cc3ccc(-c4ccc(Cl)cc4)o3)SC2=S)ccc1Cl` [Compound A68], under setting [1], the IC50 was below 10 µM.

In the case of `CCc1ccc(-c2ccc(C=C3SC(=S)N(c4cc(C(=O)O)cc(C(F)(F)F)c4)C3=O)o2)cc1` [Compound A225], under setting [1], the IC50 fell in the range of 11 to 40 µM. For the molecule `CC(=O)NS(=O)(=O)c1ccc(N2C(=O)C(=Cc3ccc(-c4cccc(C(F)(F)F)c4)o3)SC2=S)cc1` [Compound A31], the IC50 under setting [1] was below 10 µM.
